PMC5537602, “TRPA1 channel mediates organophosphate-induced delayed neuropathy” (Cell Discovery, 2017)

Assays:
[1] = tested on: mouse DRG neurons; test: Whole-cell patch-clamp of small-diameter DRG neurons; assay type: cell-based
Description: DRG neurons were isolated from young C57 BL/6 mice (4–5 weeks). The sections of thoracic and lumbar DRG neurons were rapidly isolated in calcium and magnesium-free PBS with low temperature conditions (ice-bath environment). The isolated tissues were cut into pieces with scissor and incubated for 30 min with 0.1% collagenase and 0.025% trypsin which were diluted by DMEM-F12 at 37 °C. After digestion, neurons were gently dissociated using Pasteur pipettes and then plated onto poly-D-lysine pre-coated glass cover slips. DRG neurons were cultured for 24 h before use.
(§1) Whole-cell patch-clamp recordings in DRG neurons (small diameter, […]) and HEK293 cells were operated at room temperature (23–25 °C) using EPC-10 amplifier and Patch Master Software (HEKA). […] Currents were sampled at 10 kHz and low-pass filtered at 2.9 kHz. The internal solution was as follows (in mM): 140 CsCl, 10 HEPES, 5 EGTA, 0.1 CaCl2 and 1 MgCl2, with pH adjusted to 7.2 by CsOH and osmolarity 295–300 mOsm. The calcium-free external solution contained (in mM) 140 NaCl, 5 KCl, 0.5 EGTA, 1 MgCl2, 10 Glucose and 10 HEPES, with pH adjusted to 7.4 by NaOH and osmolarity 300–310 mOsm. The 0.5 mM EGTA was replaced by 2 mM CaCl2 for the recordings in DRG neurons. TRPA1 currents development was monitored with repetitive injections of 300 ms duration voltage ramps from −100 to +100 mV every 2 s and the holding potential was set to 0 mV for 50 ms, existing in both sides of the voltage ramp. To record inward currents in DRG neurons, we conducted voltage clamp at holding membrane potential of −70 mV. Solutions were switched using a gravity-fed continuous focal perfusion system.

[2] = molecular target: T1, TRPV3 (Homo sapiens, UniProt Q8NET8); test: Calcium fluorescence signal, HEK293 cells overexpressing TRPV3; assay type: cell-based; conditions: 10 μM
T1 construct: expressed in transfected cells; host or cells: HEK293
T1 sequence (Q8NET8 1-790): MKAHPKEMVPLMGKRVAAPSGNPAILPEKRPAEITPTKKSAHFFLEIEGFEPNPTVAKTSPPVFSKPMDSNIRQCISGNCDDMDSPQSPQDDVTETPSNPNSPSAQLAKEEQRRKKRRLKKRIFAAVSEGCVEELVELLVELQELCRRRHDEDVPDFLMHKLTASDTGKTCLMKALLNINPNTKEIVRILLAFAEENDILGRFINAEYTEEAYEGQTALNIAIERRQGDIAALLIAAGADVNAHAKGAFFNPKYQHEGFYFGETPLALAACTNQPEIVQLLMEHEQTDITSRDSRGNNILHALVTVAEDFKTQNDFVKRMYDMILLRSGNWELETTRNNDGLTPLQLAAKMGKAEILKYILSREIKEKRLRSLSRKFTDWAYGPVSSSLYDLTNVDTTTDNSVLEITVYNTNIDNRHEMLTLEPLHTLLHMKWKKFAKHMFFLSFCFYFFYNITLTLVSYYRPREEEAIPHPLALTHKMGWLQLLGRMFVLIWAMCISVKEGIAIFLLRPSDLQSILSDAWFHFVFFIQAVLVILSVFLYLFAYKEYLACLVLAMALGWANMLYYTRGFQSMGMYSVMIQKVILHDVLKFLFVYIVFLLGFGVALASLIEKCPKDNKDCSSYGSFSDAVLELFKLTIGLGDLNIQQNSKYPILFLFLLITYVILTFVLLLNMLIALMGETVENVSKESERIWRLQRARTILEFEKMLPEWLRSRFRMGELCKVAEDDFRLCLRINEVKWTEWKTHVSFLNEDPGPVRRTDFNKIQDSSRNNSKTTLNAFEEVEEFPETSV
Description: Figure S3. Specificity of malathion for TRPA1 channels. (A-F) Time course of the fluorescence signal induced by malathion (Mala, 10 μM) and the indicated positive agonists (10 μM) in HEK293 cells overexpressing TRPV1 (A), TRPV3 (B), TRPV4 (C), TRPM8 (D), TRPC4 (E) and TRPC5 (F) channels. The fluorescence signals are scaled as F/F0. EC indicates external solution. […]
cells for each tested TRP channel. All bars are presented as the mean ± SEM. […]

[3] = tested on: mice; test: Behavioral testing of mice (paw-licking time after intraplantar injection); assay type: in vivo, mouse
Description: The chosen mice were allowed to acclimate to the experimental environment for at least 2 h before testing. Intraplantar injection of 5% AITC and 30% malathion (10 μl) was achieved using separate injectors. Spontaneous pain evoked by the compounds was assessed by measuring the time (s) the mice spent on licking. For the HC030031 groups, 200 mg kg^−1 HC030031 was intragastrically administered, and then the test was conducted after 1 h. The testing phase was divided into two parts: 0–10 min and 11–60 min.

[4] = tested on: hens; test: Transmission electron microscopy of hen spinal cord and sciatic nerve; assay type: in vivo
Description: For hens, the animals were anesthetized with sodium pentobarbital (100 mg kg^−1) and killed 21 days after exposure to TOCP and malathion. They were then perfused with normal saline followed immediately by 4% paraformaldehyde. The lumbar spinal cord at approximately the L2-L3 level and the sciatic nerve of the left leg were removed and fixed by immersion in ice-cold 2.5% glutaraldehyde. Subsequently, the samples were post-fixed in 1% OsO4 for 1 h, dehydrated with the ethanol series, and embedded in epon resin. Sixty-nanometer ultra-thin sections were double stained with lead citrate and uranyl acetate and examined with an electron microscopy.

[5] = molecular target: T2, rTRPA1 (Rattus norvegicus, UniProt Q6RI86); test: Whole-cell patch-clamp, HEK293 cells expressing rTRPA1; assay type: cell-based
T2 construct: expressed in transfected cells; host or cells: HEK293, transient
T2 sequence (Q6RI86 whole entry): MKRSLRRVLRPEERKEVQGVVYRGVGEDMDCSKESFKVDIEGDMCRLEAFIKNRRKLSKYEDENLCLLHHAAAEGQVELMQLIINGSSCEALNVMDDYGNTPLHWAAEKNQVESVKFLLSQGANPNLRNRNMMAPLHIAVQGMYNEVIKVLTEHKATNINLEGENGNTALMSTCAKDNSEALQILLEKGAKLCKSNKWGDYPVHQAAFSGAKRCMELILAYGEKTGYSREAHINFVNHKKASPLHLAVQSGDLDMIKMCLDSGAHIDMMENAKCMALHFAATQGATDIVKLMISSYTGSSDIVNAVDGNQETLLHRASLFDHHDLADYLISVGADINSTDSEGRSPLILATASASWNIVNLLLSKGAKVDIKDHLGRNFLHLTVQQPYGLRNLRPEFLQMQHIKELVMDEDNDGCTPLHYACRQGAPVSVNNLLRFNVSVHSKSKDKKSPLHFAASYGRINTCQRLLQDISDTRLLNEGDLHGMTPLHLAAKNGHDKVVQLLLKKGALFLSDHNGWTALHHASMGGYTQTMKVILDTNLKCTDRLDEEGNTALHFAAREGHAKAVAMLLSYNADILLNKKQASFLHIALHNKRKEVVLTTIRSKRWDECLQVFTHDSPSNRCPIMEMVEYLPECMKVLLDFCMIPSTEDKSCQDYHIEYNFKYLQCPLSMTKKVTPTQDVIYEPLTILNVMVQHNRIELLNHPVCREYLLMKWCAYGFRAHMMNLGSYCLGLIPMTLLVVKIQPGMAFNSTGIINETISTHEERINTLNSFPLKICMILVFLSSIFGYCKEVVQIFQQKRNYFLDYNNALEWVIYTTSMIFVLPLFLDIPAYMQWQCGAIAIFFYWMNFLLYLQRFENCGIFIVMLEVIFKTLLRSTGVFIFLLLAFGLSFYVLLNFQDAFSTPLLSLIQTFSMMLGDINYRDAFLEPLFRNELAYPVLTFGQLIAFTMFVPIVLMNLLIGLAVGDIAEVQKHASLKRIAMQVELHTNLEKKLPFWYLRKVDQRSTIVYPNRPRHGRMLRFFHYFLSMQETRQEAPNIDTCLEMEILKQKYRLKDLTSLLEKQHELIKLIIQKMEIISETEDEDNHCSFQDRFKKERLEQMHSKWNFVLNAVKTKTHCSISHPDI
Description: (§2) Human embryonic kidney 293 (HEK293) cells were cultured in DMEM containing 10% (vol/vol) heat-inactivated fetal bovine serum, 100 units ml^−1 penicillin–streptomycin and 2 mM L-glutamine at 37 °C in a humidity-controlled sterile incubator with 5% CO2. All cell culture reagents were purchased from Life Technologies. HEK293 cells were transfected transiently with the corresponding plasmids using lipofectamine 2000 (Life Technologies). Transfection efficiency was monitored by co-transfecting EGFP plasmid which codes for the enhanced green fluorescent protein. Electrophysiological recordings were performed between 24 and 36 h after transfection.
as §1

[6] = molecular target: mTRPA1 (Mus musculus, UniProt Q8BLA8); test: Whole-cell patch-clamp, HEK293 cells expressing mTRPA1; assay type: cell-based; design: expressed in transfected cells; host or cells: HEK293
Chain of mTRPA1 (Q8BLA8 whole entry): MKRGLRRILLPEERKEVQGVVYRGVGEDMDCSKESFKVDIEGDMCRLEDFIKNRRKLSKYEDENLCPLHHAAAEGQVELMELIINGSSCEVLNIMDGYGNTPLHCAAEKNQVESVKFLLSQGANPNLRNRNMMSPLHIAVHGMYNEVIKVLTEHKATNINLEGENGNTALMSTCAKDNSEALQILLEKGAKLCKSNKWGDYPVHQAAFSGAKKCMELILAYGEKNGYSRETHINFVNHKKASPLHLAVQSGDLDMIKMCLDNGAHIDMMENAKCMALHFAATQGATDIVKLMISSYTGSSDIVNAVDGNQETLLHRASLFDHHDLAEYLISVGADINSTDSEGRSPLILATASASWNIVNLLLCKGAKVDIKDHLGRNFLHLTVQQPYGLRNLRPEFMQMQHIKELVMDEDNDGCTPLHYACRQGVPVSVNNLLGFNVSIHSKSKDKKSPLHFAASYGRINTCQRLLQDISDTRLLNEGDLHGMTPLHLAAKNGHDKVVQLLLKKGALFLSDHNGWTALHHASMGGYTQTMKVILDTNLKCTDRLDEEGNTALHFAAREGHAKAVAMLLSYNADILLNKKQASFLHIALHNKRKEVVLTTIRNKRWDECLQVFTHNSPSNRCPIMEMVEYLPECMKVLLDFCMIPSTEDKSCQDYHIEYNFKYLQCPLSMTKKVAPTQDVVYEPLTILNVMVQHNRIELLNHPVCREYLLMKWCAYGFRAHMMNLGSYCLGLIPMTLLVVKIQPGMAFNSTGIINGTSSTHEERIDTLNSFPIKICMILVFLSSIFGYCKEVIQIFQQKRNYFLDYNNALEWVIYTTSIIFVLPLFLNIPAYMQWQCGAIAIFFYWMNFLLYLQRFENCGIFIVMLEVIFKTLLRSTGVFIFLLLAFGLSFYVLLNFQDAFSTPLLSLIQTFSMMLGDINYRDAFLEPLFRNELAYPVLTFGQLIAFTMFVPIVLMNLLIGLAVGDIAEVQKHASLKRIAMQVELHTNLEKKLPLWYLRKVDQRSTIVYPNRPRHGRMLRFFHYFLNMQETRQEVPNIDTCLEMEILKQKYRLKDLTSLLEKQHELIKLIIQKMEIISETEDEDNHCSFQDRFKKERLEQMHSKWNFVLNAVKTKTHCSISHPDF
Description: as §2, §1

[7] = tested on: mice; test: Transmission electron microscopy of local nerve fibers in mice; assay type: in vivo, mouse
Description: For mice, subcutaneous tissue from the site of exposure was removed and fixed by immediate immersion in ice-cold 2.5% glutaraldehyde. Subsequently, the samples were post-fixed in 1% OsO4 for 1 h, dehydrated with an ethanol series and embedded in epon resin. Sixty-nanometer ultra-thin sections were double stained with lead citrate and uranyl acetate and examined using an electron microscopy.

[8] = 30 μM, calcium-free external solution
[9] = HC030031 200 mg kg−1 per oral, 1 h before test
[10] = 10 μM HC030031, malathion or TOCP as agonist

Structure (SMILES) | action potential firing in WT small-diameter neurons ([1]; 100 μM) | currents in neurons from Trpa1−/− mice ([1]; Trpa1−/− neurons, 17/17) | neurons with robust inward currents ([1]; small-diameter neurons from WT mice, 7/18) | activation of TRPV3 [2] | nociception-like behavior in Trpa1−/− mice ([3]; Trpa1−/− mice, 30% malathion intraplantar) | nocifensive behavior (paw-licking) after plantar injection ([3]; WT mice, AITC 10 μl 5%, malathion 10 μl 30%, intraplantar) | damage of spinal cord and sciatic nerve (TEM) ([4]; 21 days after exposure) | activation of rTRPA1 whole-cell currents [5, 8] | activation of mTRPA1 whole-cell currents [6, 8] | nerve fiber damage around the injection site (TEM) ([7]; WT mice, plantar injection, 5% AITC or 30% malathion) | effect on AITC- or malathion-elicited action potentials ([1]; 10 μM HC030031) | inhibition of malathion-induced inward currents in DRG neurons ([1]; 10 μM HC030031) | effect on AITC-evoked nocifensive behavior [3, 9] | effect on malathion-evoked nociception-like behavior [3, 9] | effect on TOCP- or malathion-induced nerve injuries (TEM) ([4]; HC030031 100 mg kg−1) | block of agonist-elicited rTRPA1 currents [5, 10] | block of agonist-elicited mTRPA1 currents [6, 10] | effect on malathion-induced myelin sheath damage (TEM) ([7]; HC030031 pretreatment)
CCOC(=O)CC(SP(=S)(OC)OC)C(=O)OCC (stereo not drawn) [malathion, S-[1,2-bis (ethoxycarbonyl)ethyl] O, O-dimethyl phosphorodithioate] | bursts of action potentials | failed to induce currents | ~ 39% | could not activate | not observed | nociception-like behavior | severely damaged the spinal cord and sciatic nerve | large activation current | large activation current | damage of the myelin sheath |  |  |  |  |  |  |  | 
CC(C)c1ccc(NC(=O)Cn2cnc3c2c(=O)n(C)c(=O)n3C)cc1 [HC030031] |  |  |  |  |  |  |  |  |  |  | suppressed | inhibited | suppressed | blocked | significantly reduced | blocked | blocked | significantly protected the myelin sheath
